The assay concerns the target KRAS G12C and cRAF (Ras-binding domain) interaction (Homo sapiens (Human), UniProt P01116, C118S/C51S/C80L/G12C). Put plainly: Inhibition of KRAS G12C and cRAF binding (AlphaScreen). In outline: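 Compounds (DMSO) preincubated 19-20 h at room temperature, then RBD with streptavidin donor and glutathione acceptor beads added in 25 mM Hepes pH 7.4, 150 mM NaCl, 5 mM MgCl2, 0.01% Triton X-100, 2% DMSO for 60-90 min. Emission 570 nm (excitation 680 nm); IC50 by 4-parameter fit. Counter-screen used biotin-AviTag-GST instead of RBD.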

The mark [1] stands for this setting: GMPPNP-loaded KRAS G12C, 19-20 hours incubation with compound, read-out: IC50 (Inhibition of KRAS G12C and cRAF Binding).
The mark [2] stands for this setting: additional exemplary compounds, KRAS G12C and cRAF binding, read-out: RAF1 RBD IC50.

Read-outs that look alike come from different tables or passages of the source.

Chain of KRAS G12C and cRAF (Ras-binding domain) interaction (P01116 other isoform, or with tags, fused parts or gaps G12C/C51S/C80L/C118S): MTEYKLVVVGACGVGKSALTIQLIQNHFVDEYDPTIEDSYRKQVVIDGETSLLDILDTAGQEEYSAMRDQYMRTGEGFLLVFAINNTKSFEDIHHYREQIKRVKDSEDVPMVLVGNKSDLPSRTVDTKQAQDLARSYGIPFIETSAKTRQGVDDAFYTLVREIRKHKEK

As to `COC(=O)/C=C/C(=O)NCCN(C)c1nc(OC[C@@H]2CCCN2C)nc2c1CCN(c1cccc3cccc(Cl)c13)C2` [Example 22, methyl(S,E)-4-((2-((7-(8-chloronaphthalen-1-yl)-2-((1-methylpyrrolidin-2-yl)methoxy)-5,6,7,8-tetrahydropyrido[3,4-d]pyrimidin-4-yl)(methyl)amino)ethyl)amino)-4-oxobut-2-enoate], under setting [1], the half-inhibitory concentration (IC50) lay within 100 to 500 nM. For `C=CC(=O)N1CC[C@@H](N(C)c2nc(OC[C@@]34CCCN3C[C@H](F)C4)nc3c(F)c(-c4cccc5c(Cl)cc(F)cc45)ncc23)C1`, the half-inhibitory concentration (IC50) under setting [2] is greater than 500 nM. With `O=C(/C=C/CN1CCOCC1)N1CC2(C1)CN(c1nc(OC[C@@]34CCCN3C[C@H](F)C4)nc3c(F)c(-c4cccc5cccc(Cl)c45)ncc13)C2`, the 50% inhibitory concentration (IC50) under setting [2] is greater than 500 nM. Still for that read-out and setting: the value for `C=CC(=O)N1CC[C@@H](N(C)c2nc(OC[C@@]34CCCN3C[C@@H](F)C4)nc3c(F)c(-c4cccc5cccc(Cl)c45)ncc23)C1` was greater than 500 nM.

`CCc1c(F)ccc2cccc(-c3ncc4c(N(C)[C@@H]5CCN(C(=O)/C=C/c6cc(C)nc(C)n6)C5)nc(OC[C@@]56CCCN5C[C@H](F)C6)nc4c3F)c12` [Example 279, (E)-3-(2,6-dimethylpyrimidin-4-yl)-1-((R)-3-((7-(8-ethyl-7-fluoronaphthalen-1-yl)-8-fluoro-2-(((2R,7aS)-2-fluorotetrahydro-1H-pyrrolizin-7a(5H)-yl)methoxy)pyrido[4,3-d]pyrimidin-4-yl)(methyl)amino)pyrrolidin-1-yl)prop-2-en-1-one]: the half-maximal inhibitory concentration (IC50) under setting [1] was 100 to 500 nM.

In the case of `C#Cc1c(F)ccc2cccc(-c3ncc4c(N(C)[C@@H]5CCN(C(=O)/C=C/c6cc(C)nc(C)n6)C5)nc(OC[C@@]56CCCN5C[C@H](F)C6)nc4c3F)c12` [Example 207, (E)-3-(2,6-dimethylpyrimidin-4-yl)-1-((R)-3-((7-(8-ethynyl-7-fluoronaphthalen-1-yl)-8-fluoro-2-(((2R,7aS)-2-fluorotetrahydro-1H-pyrrolizin-7a(5H)-yl)methoxy)pyrido[4,3-d]pyrimidin-4-yl)(methyl)amino)pyrrolidin-1-yl)prop-2-en-1-one], the 50% inhibitory concentration (IC50) under setting [1] lay in the range of 10 to 100 nM. Regarding `C=CC(=O)N1C[C@H](N(C)c2nc(OC[C@@]34CCCN3C[C@H](F)C4)nc3c(F)c(-c4cccc5cccc(Cl)c45)ncc23)C(F)(F)C1` [Example 239, 1-((S)-4-((7-(8-chloronaphthalen-1-yl)-8-fluoro-2-(((2R,7aS)-2-fluorotetrahydro-1H-pyrrolizin-7a(5H)-yl)methoxy)pyrido[4,3-d]pyrimidin-4-yl)(methyl)amino)-3,3-difluoropyrrolidin-1-yl)prop-2-en-1-one], the concentration for half-maximal inhibition (IC50) under setting [1] was in the range of 10 to 100 nM. `CN(c1nc(OC[C@@]23CCCN2C[C@H](F)C3)nc2c(F)c(-c3cccc4cccc(Cl)c34)ncc12)[C@@H]1CCN(C(=O)C#CC2COCCN2)C1` (stereo partly drawn) [Example 238, 1-((R)-3-((7-(8-chloronaphthalen-1-yl)-8-fluoro-2-(((2R,7aS)-2-fluorohexahydro-1H-pyrrolizin-7a-yl)methoxy)pyrido[4,3-d]pyrimidin-4-yl)(methyl)amino)pyrrolidin-1-yl)-3-(morpholin-3-yl)prop-2-yn-1-one]: the IC50 under setting [1] is 10 to 100 nM. Take `CN(CCC1CN(C#N)C1)c1nc(OCC23CCCN2CCC3)nc2c1CCN(c1cccc3cccc(Cl)c13)C2`: the IC50 under setting [2] is 100 to 500 nM. With `CN(c1nc(OC[C@@]23CCCN2C[C@H](F)C3)nc2c(F)c(-c3cccc4ccc(F)c(Cl)c34)ncc12)[C@@H]1CCN(C(=O)/C=C/[C@H]2CCN2CC2COC2)C1` [Example 213, (E)-1-((R)-3-((7-(8-chloro-7-fluoronaphthalen-1-yl)-8-fluoro-2-(((2R,7aS)-2-fluorotetrahydro-1H-pyrrolizin-7a(5H)-yl)methoxy)pyrido[4,3-d]pyrimidin-4-yl)(methyl)amino)pyrrolidin-1-yl)-3-((R)-1-(oxetan-3-ylmethyl)azetidin-2-yl)prop-2-en-1-one], under setting [1], the IC50 fell in the range of 10 to 100 nM. On to `CN(c1nc(OC[C@@]23CCCN2C[C@H](F)C3)nc2c(F)c(-c3cccc4cccc(Cl)c34)ncc12)[C@@H]1CCN(C(=O)/C=C/c2ncc(F)cn2)C1`, for which the 50% inhibitory concentration (IC50) under setting [2] is greater than 500 nM.

By IC50 is commonly meant the concentration at which inhibition is half-maximal.
